Assay results taken from patent publication US20240358693A1, “METHODS OF TREATING PAIN” (Aisa Pharma, Inc., priority 2023, published 2024).

How the values were obtained:
participants with SSc-RP [1] = test: Average daily Raynaud's Condition Score (RCS); format: in vivo, human; set-up: key to Average Daily RCS, Mean / Average Daily RCS, Median / Average Daily RCS, Change from Baseline, Mean / Average Daily RCS, Change from Baseline, Median / Average daily RCS, Baseline, Mean / Average daily RCS, Baseline, Median / Mean RCS at baseline: RCS rated on a 0-10 cm VAS scale; settings: for Average Daily RCS, Change from Baseline, Mean / Average Daily RCS, Change from Baseline, Median / Average Daily RCS, Percent Change from Baseline, Mean / Average Daily RCS, Percent Change from Baseline, Median / Average Daily RCS, Mean / Average Daily RCS, Median / Average Daily RCS (dosing period), Mean / Average Daily RCS (dosing period), Median / Average daily RCS, Baseline, Mean / Average daily RCS, Baseline, Median: ITT Part A; for Average Daily RCS, Mean / Average Daily RCS, Median: dosing period
From the text: The RCS is based on how much difficulty participants had with Raynaud's today, how many attacks the participant had, and how long they lasted. In addition participants were and will be asked to consider how much pain, numbness, or other symptoms the Raynaud's caused in fingers (including painful sores), and how much the Raynaud's along affected the use of hand today (VAS 0-10 cm scale).
The absolute change in average daily RCS from baseline to the end of each dosing period was and will be a secondary outcome variable. The sponsor-developed participant-informed diary has been and will be used to record data. The average daily RCS is defined as the total RCS divided by the number of days with available diary data of each dosing period. Total RCS during screening period divided by the number of days with available data will be used as baseline for the analysis of all periods. If there are multiple daily RCS scores, the latest daily RCS will be used. The variable will be calculated similar to frequency data as before.

participants with SSc-RP [2] = test: Pain score recorded during weekly RP attacks (11-point Likert scale); format: in vivo, human; settings: for Average Pain Score [Mean (SD)]: on treatment, N = 24
From the text: The absolute change in average pain score (11-point Likert scale) of weekly RP attacks from baseline to the end of each Dosing Period will be a secondary outcome variable. The sponsor-developed participant-informed diary will be used to record data. The average pain score of weekly RP attacks is defined as the total pain scores divided by total number of RP attacks within the last 7 days of each dosing period. Average of the last 7 days of screening assessments will be used as baseline for the analysis of all periods. The variable will be calculated similar to frequency data as before.

[3] = excluding outliers, dose Cilnidipine 10 mg, Tadalafil 5 mg, or 10 mg + 5 mg
[4] = excluding outliers, dose Cilnidipine 20 mg, or 20 mg + Tadalafil 5 mg
[5] = excluding outliers, pooled 10 mg and 20 mg Cilnidipine arms (combination: + Tadalafil 5 mg)
[6] = excluding outliers, pooled Cilnidipine 10 mg and Cilnidipine 10 mg + Tadalafil 5 mg
[7] = excluding outliers, pooled Cilnidipine 20 mg and Cilnidipine 20 mg + Tadalafil 5 mg
[8] = Pooled Cilnidipine 10 mg and Cilnidipine 10 mg + Tadalafil 5 mg
[9] = Pooled Cilnidipine 20 mg and Cilnidipine 20 mg + Tadalafil 5 mg

COCCOC(=O)C1=C(C)NC(C)=C(C(=O)OC/C=C/c2ccccc2)C1c1cccc([N+](=O)[O-])c1 (centres unmarked) [Cilnidipine, cilnidipine]
Average Daily RCS, Change from Baseline, Mean (participants with SSc-RP [1]; Cilnidipine 10 mg): −0.98
Average Daily RCS, Change from Baseline, Median (participants with SSc-RP [1]; Cilnidipine 10 mg): −0.98
Average Daily RCS, Percent Change from Baseline, Mean (participants with SSc-RP [1]; Cilnidipine 10 mg): −35.74%
Average Daily RCS, Percent Change from Baseline, Median (participants with SSc-RP [1]; Cilnidipine 10 mg): −35.74%
Average Daily RCS, Mean (participants with SSc-RP [1]; Cilnidipine 10 mg): 1.76
Average Daily RCS, Median (participants with SSc-RP [1]; Cilnidipine 10 mg): 1.76
Average Daily RCS, Change from Baseline, Mean (participants with SSc-RP [1]; Cilnidipine 20 mg): −0.45
Average Daily RCS, Change from Baseline, Median (participants with SSc-RP [1]; Cilnidipine 20 mg): −0.45
Average Daily RCS, Percent Change from Baseline, Mean (participants with SSc-RP [1]; Cilnidipine 20 mg): −17.16%
Average Daily RCS, Percent Change from Baseline, Median (participants with SSc-RP [1]; Cilnidipine 20 mg): −17.16%
Average Daily RCS, Mean (participants with SSc-RP [1]; Cilnidipine 20 mg): 2.90
Average Daily RCS, Median (participants with SSc-RP [1]; Cilnidipine 20 mg): 2.90
Daily RCS Change (participants with SSc-RP [1]; Cilnidipine (20 mg) (n = 3)): −28%
Mean % reduction in RCS (participants with SSc-RP [1]; Cilnidipine (20 mg) (n = 3)): 27.9%
Mean RCS at baseline (participants with SSc-RP [1]; Cilnidipine (20 mg) (n = 3)): 3.5
Average Daily RCS (dosing period), Mean (participants with SSc-RP [1]; [3]): 1.76
Average Daily RCS (dosing period), Median (participants with SSc-RP [1]; [3]): 1.76
Average Daily RCS, Change from Baseline, Mean (participants with SSc-RP [1]; [3]): −0.98
Average Daily RCS, Change from Baseline, Median (participants with SSc-RP [1]; [3]): −0.98
Average Daily RCS, Percent Change from Baseline, Mean (participants with SSc-RP [1]; [3]): −35.74%
Average Daily RCS, Percent Change from Baseline, Median (participants with SSc-RP [1]; [3]): −35.74%
Average daily RCS, Baseline, Mean (participants with SSc-RP [1]; [3]): 2.74
Average daily RCS, Baseline, Median (participants with SSc-RP [1]; [3]): 2.74
Average Daily RCS (dosing period), Mean (participants with SSc-RP [1]; [4]): 2.90
Average Daily RCS (dosing period), Median (participants with SSc-RP [1]; [4]): 2.90
Average Daily RCS, Change from Baseline, Mean (participants with SSc-RP [1]; [4]): −0.45
Average Daily RCS, Change from Baseline, Median (participants with SSc-RP [1]; [4]): −0.45
Average Daily RCS, Percent Change from Baseline, Mean (participants with SSc-RP [1]; [4]): −17.16%
Average Daily RCS, Percent Change from Baseline, Median (participants with SSc-RP [1]; [4]): −17.16%
Average daily RCS, Baseline, Mean (participants with SSc-RP [1]; [4]): 3.35
Average daily RCS, Baseline, Median (participants with SSc-RP [1]; [4]): 3.35
Average Daily RCS (dosing period), Mean (participants with SSc-RP [1]; [5]): 2.52
Average Daily RCS (dosing period), Median (participants with SSc-RP [1]; [5]): 1.76
Average Daily RCS, Change from Baseline, Mean (participants with SSc-RP [1]; [5]): −0.63
Average Daily RCS, Change from Baseline, Median (participants with SSc-RP [1]; [5]): −0.98
Average Daily RCS, Percent Change from Baseline, Mean (participants with SSc-RP [1]; [5]): −23.35%
Average Daily RCS, Percent Change from Baseline, Median (participants with SSc-RP [1]; [5]): −35.74%
Average daily RCS, Baseline, Mean (participants with SSc-RP [1]; [5]): 3.15
Average daily RCS, Baseline, Median (participants with SSc-RP [1]; [5]): 2.80
Average Daily RCS (dosing period), Mean (participants with SSc-RP [1]; [6]): 2.43
Average Daily RCS (dosing period), Median (participants with SSc-RP [1]; [6]): 1.76
Average Daily RCS, Change from Baseline, Mean (participants with SSc-RP [1]; [6]): −1.64
Average Daily RCS, Change from Baseline, Median (participants with SSc-RP [1]; [6]): −1.51
Average Daily RCS, Percent Change from Baseline, Mean (participants with SSc-RP [1]; [6]): −41.77%
Average Daily RCS, Percent Change from Baseline, Median (participants with SSc-RP [1]; [6]): −36.47%
Average daily RCS, Baseline, Mean (participants with SSc-RP [1]; [6]): 4.07
Average daily RCS, Baseline, Median (participants with SSc-RP [1]; [6]): 2.85
Average Daily RCS (dosing period), Mean (participants with SSc-RP [1]; [7]): 3.60
Average Daily RCS (dosing period), Median (participants with SSc-RP [1]; [7]): 3.82
Average Daily RCS, Change from Baseline, Mean (participants with SSc-RP [1]; [7]): −1.08
Average Daily RCS, Change from Baseline, Median (participants with SSc-RP [1]; [7]): −0.59
Average Daily RCS, Percent Change from Baseline, Mean (participants with SSc-RP [1]; [7]): −18.93%
Average Daily RCS, Percent Change from Baseline, Median (participants with SSc-RP [1]; [7]): −20.71%
Average daily RCS, Baseline, Mean (participants with SSc-RP [1]; [7]): 4.68
Average daily RCS, Baseline, Median (participants with SSc-RP [1]; [7]): 3.74
Average Daily RCS, Change from Baseline, Mean (participants with SSc-RP [1]; [8]): −1.64
Average Daily RCS, Change from Baseline, Median (participants with SSc-RP [1]; [8]): −1.51
Average Daily RCS, Percent Change from Baseline, Mean (participants with SSc-RP [1]; [8]): −41.77%
Average Daily RCS, Percent Change from Baseline, Median (participants with SSc-RP [1]; [8]): −36.47%
Average Daily RCS, Mean (participants with SSc-RP [1]; [8]): 2.43
Average Daily RCS, Median (participants with SSc-RP [1]; [8]): 1.76
Average Daily RCS, Change from Baseline, Mean (participants with SSc-RP [1]; [9]): −1.08
Average Daily RCS, Change from Baseline, Median (participants with SSc-RP [1]; [9]): −0.59
Average Daily RCS, Percent Change from Baseline, Mean (participants with SSc-RP [1]; [9]): −18.93%
Average Daily RCS, Percent Change from Baseline, Median (participants with SSc-RP [1]; [9]): −20.71%
Average Daily RCS, Mean (participants with SSc-RP [1]; [9]): 3.60
Average Daily RCS, Median (participants with SSc-RP [1]; [9]): 3.82
Daily RCS Change (participants with SSc-RP [1]; Pooled Cilnidipine (n = 7), this value n = 3): 12% (n = 3)
Average Daily RCS, Change from Baseline, Mean (participants with SSc-RP [1]; Pooled Cilnidipine): −0.63
Average Daily RCS, Change from Baseline, Median (participants with SSc-RP [1]; Pooled Cilnidipine): −0.98
Average Daily RCS, Percent Change from Baseline, Mean (participants with SSc-RP [1]; Pooled Cilnidipine): −23.35%
Average Daily RCS, Percent Change from Baseline, Median (participants with SSc-RP [1]; Pooled Cilnidipine): −35.74%
Average Daily RCS, Mean (participants with SSc-RP [1]; Pooled Cilnidipine): 2.52
Average Daily RCS, Median (participants with SSc-RP [1]; Pooled Cilnidipine): 1.76
Average Pain Score, Change From Baseline, Mean (participants with SSc-RP [2]; Cilnidipine 10 mg (n = 4)): 0.47
Average Pain Score, Percent Change from Baseline, Mean (participants with SSc-RP [2]; Cilnidipine 10 mg (n = 4)): 11.76%
Average Pain Score [Mean (SD)] (participants with SSc-RP [2]; Cilnidipine 10 mg (n = 4)): 2.82 (2.268)
Average Pain Score [Mean (SD)] (participants with SSc-RP [2]; Cilnidipine 20 mg (n = 3)): 1.28 (1.993)
Average Pain Score, Change From Baseline, Mean (participants with SSc-RP [2]; Cilnidipine (20 mg) (n = 3)): −0.47
Average Pain Score, Percent Change from Baseline, Mean (participants with SSc-RP [2]; Cilnidipine (20 mg) (n = 3)): −26.89%
Average Raynaud's Pain (participants with SSc-RP [2]; Cilnidipine (20 mg) (n = 3)): 12%
Mean pain level at baseline (participants with SSc-RP [2]; Cilnidipine (20 mg) (n = 3)): 2.3
Mean percent change in pain score from baseline (participants with SSc-RP [2]; Cilnidipine (20 mg) (n = 3)): −11.8%
Average Raynaud's Pain (participants with SSc-RP [2]; Pooled Cilnidipine (n = 7)): −27%

CN1CC(=O)N2[C@H](c3ccc4c(c3)OCO4)c3[nH]c4ccccc4c3C[C@@H]2C1=O [Tadalafil, tadalafil]
Average Daily RCS (dosing period), Mean (participants with SSc-RP [1]; [3]): 4.46
Average Daily RCS (dosing period), Median (participants with SSc-RP [1]; [3]): 4.46
Average Daily RCS, Change from Baseline, Mean (participants with SSc-RP [1]; [3]): −1.58
Average Daily RCS, Change from Baseline, Median (participants with SSc-RP [1]; [3]): −1.58
Average Daily RCS, Percent Change from Baseline, Mean (participants with SSc-RP [1]; [3]): −26.18%
Average Daily RCS, Percent Change from Baseline, Median (participants with SSc-RP [1]; [3]): −26.18%
Average daily RCS, Baseline, Mean (participants with SSc-RP [1]; [3]): 6.04
Average daily RCS, Baseline, Median (participants with SSc-RP [1]; [3]): 6.04
Average Daily RCS, Change from Baseline, Mean (participants with SSc-RP [1]; Tadalafil 5 mg): −0.67
Average Daily RCS, Change from Baseline, Median (participants with SSc-RP [1]; Tadalafil 5 mg): −0.67
Average Daily RCS, Percent Change from Baseline, Mean (participants with SSc-RP [1]; Tadalafil 5 mg): −11.76%
Average Daily RCS, Percent Change from Baseline, Median (participants with SSc-RP [1]; Tadalafil 5 mg): −11.76%
Average Daily RCS, Mean (participants with SSc-RP [1]; Tadalafil 5 mg): 7.05
Average Daily RCS, Median (participants with SSc-RP [1]; Tadalafil 5 mg): 7.05
Average Pain Score, Change From Baseline, Mean (participants with SSc-RP [2]; Tadalafil 5 mg (n = 4)): 0.37
Average Pain Score, Percent Change from Baseline, Mean (participants with SSc-RP [2]; Tadalafil 5 mg (n = 4)): 17.20%
Average Pain Score [Mean (SD)] (participants with SSc-RP [2]; Tadalafil 5 mg (n = 4)): 5.84 (4.768)
